Experimental data taken from patent publication US10894792B2, “Pesticidally active heterocyclic derivatives with sulfur containing substituents” (SYNGENTA PARTICIPATIONS AG, priority 2017, dated 2021).

Key:
Type in all cases: in vivo
Diabrotica Balteata = assay: Activity against Diabrotica balteata (corn root worm); conditions: 96 h, application rate of 200 ppm, sprayed maize sprouts, L2 larvae, 4 days after infestation, read-out: effect in at least one of the two categories (mortality or growth inhibition)
Description: Maize sprouts placed onto an agar layer in 24-well microtiter plates were treated with aqueous test solutions prepared from 10′000 ppm DMSO stock solutions by spraying. After drying, the plates were infested with L2 larvae (6 to 10 per well). The samples were assessed for mortality and growth inhibition in comparison to untreated samples 4 days after infestation.

Myzus persicae [1] = assay: Activity against Myzus persicae (green peach aphid), roots of pea seedlings in test solution; conditions: 144 h, test rate of 24 ppm, roots of infested pea seedlings in test solution, 6 days
Description: Roots of pea seedlings infested with an aphid population of mixed ages were placed directly in the aqueous test solutions prepared from 10′000 DMSO stock solutions. The samples were assessed for mortality 6 days after placing seedlings in test solutions.

Euschistus heros = assay: Activity against Euschistus heros (neotropical brown stink bug); conditions: 120 h, application rate of 200 ppm, sprayed soybean leaf, N-2 nymphs, 5 days after infestation, read-out: effect in at least one of the two categories (mortality or growth inhibition)
Description: Soybean leaf on agar in 24-well microtiter plates were sprayed with aqueous test solutions prepared from 10′000 ppm DMSO stock solutions. After drying the leaf were infested with N-2 nymphs. The samples were assessed for mortality and growth inhibition in comparison to untreated samples 5 days after infestation.

Myzus persicae [2] = assay: Activity against Myzus persicae (green peach aphid), sprayed sunflower leaf discs; conditions: foliar, 144 h, application rate of 200 ppm, aphid population of mixed ages, 6 days after infestation
Description: (§1) Sunflower leaf discs were placed on agar in a 24-well microtiter plate and sprayed with aqueous test solutions prepared from 10′000 ppm DMSO stock solutions. After drying, the leaf discs were infested with an aphid population of mixed ages. The samples were assessed for mortality 6 days after infestation.

Bemisia tabaci = assay: Activity against Bemisia tabaci (cotton white fly); conditions: foliar, 144 h, application rate of 200 ppm, sprayed cotton leaf discs, adult white flies, 6 days after incubation
Description: Cotton leaf discs were placed on agar in 24-well microtiter plates and sprayed with aqueous test solutions prepared from 10′000 ppm DMSO stock solutions. After drying the leaf discs were infested with adult white flies. The samples were checked for mortality 6 days after incubation.

Plutella xylostella = assay: Activity against Plutella xylostella (diamond back moth), artificial diet; conditions: 120 h, application rate of 200 ppm, L2 larvae on artificial diet, 5 days after infestation, read-out: effect in at least one of the two categories (mortality or growth inhibition)
Description: 24-well microtiter plates with artificial diet were treated with aqueous test solutions prepared from 10′000 ppm DMSO stock solutions by pipetting. After drying, the plates were infested with L2 larvae (10 to 15 per well). The samples were assessed for mortality and growth inhibition in comparison to untreated samples 5 days after infestation.

[3] = system: Frankliniella occidentalis; assay: Activity against Frankliniella occidentalis (western flower thrips); conditions: foliar, 168 h, application rate of 200 ppm, sprayed sunflower leaf discs, population of mixed ages, 7 days after infestation
Description: as §1, with “in” for “in a”, “plates” for “plate”, “[…]” for “10′000 ppm”, “drying” for “drying,”, “a Frankliniella” for “an aphid”, “7” for “6”

Spodoptera littoralis = assay: Activity against Spodoptera littoralis (Egyptian cotton leaf worm); conditions: foliar, 72 h, application rate of 200 ppm, sprayed cotton leaf discs, L1 larvae, 3 days after infestation, read-out: control (mortality, anti-feeding effect, or growth inhibition)
Description: Cotton leaf discs were placed onto agar in 24-well microtiter plates and sprayed with aqueous test solutions prepared from 10′000 ppm DMSO stock solutions. After drying the leaf discs were infested with five L1 larvae. The samples were assessed for mortality, anti-feeding effect, and growth inhibition in comparison to untreated samples 3 days after infestation. Control of Spodoptera littoralis by a test sample is given when at least one of the categories mortality, anti-feedant effect, and growth inhibition is higher than the untreated sample.

CCS(=O)(=O)c1cc(C(=O)N=S(C)(C)=O)ccc1-c1nc2cc(C(F)(F)F)cnc2n1C [Compound P22, N-[dimethyl(oxo)-λ^6-sulfanylidene]-3-ethylsulfonyl-4-[3-methyl-6-(trifluoromethyl)imidazo[4,5-b]pyridin-2-yl]benzamide]
≥ 80%: percent effect (mortality or growth inhibition) at 200 ppm (Diabrotica Balteata) | mortality at 24 ppm (Myzus persicae [1]) | percent effect (mortality or growth inhibition) at 200 ppm (Euschistus heros) | mortality at 200 ppm (Myzus persicae [2]) | mortality at 200 ppm (Bemisia tabaci) | percent effect (mortality or growth inhibition) at 200 ppm (Plutella xylostella) | mortality at 200 ppm [3]

CCS(=O)(=O)c1cc(C(=O)N=S(C)(=O)CC)cnc1-c1nc2cc(C(F)(F)F)nnc2n1C (stereo not shown) [Compound P9, N-(ethyl-methyl-oxo-λ^6-sulfanylidene)-5-ethylsulfonyl-6-[7-methyl-3-(trifluoromethyl)imidazo[4,5-c]pyridazin-6-yl]pyridine-3-carboxamide]
≥ 80%: percent effect (mortality or growth inhibition) at 200 ppm (Diabrotica Balteata) | mortality at 24 ppm (Myzus persicae [1]) | percent effect (mortality or growth inhibition) at 200 ppm (Euschistus heros) | mortality at 200 ppm (Myzus persicae [2]) | mortality at 200 ppm (Bemisia tabaci) | percent effect (mortality or growth inhibition) at 200 ppm (Plutella xylostella) | mortality at 200 ppm [3]

CCS(=O)(=O)c1cc(C(=O)N=S(C)C)cnc1-c1nc2cc(C(F)(F)F)ncc2n1C [Compound P5, N-(dimethyl-λ^4-sulfanylidene)-5-ethylsulfonyl-6-[3-methyl-6-(trifluoromethyl)imidazo[4,5-c]pyridin-2-yl]pyridine-3-carboxamide]
≥ 80%: percent effect (mortality or growth inhibition) at 200 ppm (Diabrotica Balteata) | mortality at 24 ppm (Myzus persicae [1]) | percent effect (mortality or growth inhibition) at 200 ppm (Euschistus heros) | mortality at 200 ppm (Myzus persicae [2]) | mortality at 200 ppm (Bemisia tabaci)

CCS(=O)(=O)c1cc(C(=O)N=S2(=O)CCC2)cnc1-c1nc2cc(C(F)(F)F)ncc2n1C [Compound P12, 5-ethylsulfonyl-6-[3-methyl-6-(trifluoromethyl)imidazo[4,5-c]pyridin-2-yl]-N-(1-oxothietan-1-ylidene)pyridine-3-carboxamide]
≥ 80%: mortality at 24 ppm (Myzus persicae [1]) | mortality at 200 ppm (Myzus persicae [2]) | mortality at 200 ppm (Bemisia tabaci) | percent effect (mortality or growth inhibition) at 200 ppm (Plutella xylostella)

CCS(CC)=NC(=O)c1cnc(-c2nc3cc(C(F)(F)F)ncc3n2C)c(S(=O)(=O)CC)c1 [Compound P10, N-(diethyl-λ^4-sulfanylidene)-5-ethylsulfonyl-6-[3-methyl-6-(trifluoromethyl)imidazo[4,5-c]pyridin-2-yl]pyridine-3-carboxamide]
≥ 80%: mortality at 24 ppm (Myzus persicae [1]) | percent effect (mortality or growth inhibition) at 200 ppm (Euschistus heros) | mortality at 200 ppm (Myzus persicae [2]) | mortality at 200 ppm (Bemisia tabaci) | percent effect (mortality or growth inhibition) at 200 ppm (Plutella xylostella) | mortality at 200 ppm [3]

CCS(=O)(=O)c1cc(C(=O)N=S(=O)(CC)CC)ccc1-c1nc2cc(C(F)(F)F)cnc2n1C [Compound P23, N-[diethyl(oxo)-λ^6-sulfanylidene]-3-ethylsulfonyl-4-[3-methyl-6-(trifluoromethyl)imidazo[4,5-b]pyridin-2-yl]benzamide]
≥ 80%: percent effect (mortality or growth inhibition) at 200 ppm (Diabrotica Balteata) | mortality at 24 ppm (Myzus persicae [1]) | percent effect (mortality or growth inhibition) at 200 ppm (Euschistus heros) | mortality at 200 ppm (Myzus persicae [2]) | mortality at 200 ppm (Bemisia tabaci) | percent effect (mortality or growth inhibition) at 200 ppm (Plutella xylostella)

CCS(=O)(=O)c1cc(C(=O)N=S(C)(C)=O)cnc1-n1cc2cnc(C(F)(F)F)cc2n1 [Compound P24, N-[dimethyl(oxo)-λ^6-sulfanylidene]-5-ethylsulfonyl-6-[6-(trifluoromethyl)pyrazolo[4,3-c]pyridin-2-yl]pyridine-3-carboxamide]
≥ 80%: percent effect (mortality or growth inhibition) at 200 ppm (Diabrotica Balteata) | percent control (mortality, anti-feedant effect or growth inhibition) at 200 ppm (Spodoptera littoralis) | percent effect (mortality or growth inhibition) at 200 ppm (Plutella xylostella)

CCS(=O)(=O)c1cc(C(=O)N=S(=O)(CC)CC)cnc1-c1nc2cc(C(F)(F)F)ncc2n1C [Compound P3]
≥ 80%: mortality at 24 ppm (Myzus persicae [1]) | percent effect (mortality or growth inhibition) at 200 ppm (Euschistus heros) | mortality at 200 ppm (Myzus persicae [2]) | mortality at 200 ppm (Bemisia tabaci) | percent effect (mortality or growth inhibition) at 200 ppm (Plutella xylostella)

CCS(=O)(=O)c1cc(C(=O)N=S2(=O)CCOCC2)cnc1-c1nc2cc(C(F)(F)F)cnc2n1C [Compound P17, 5-ethylsulfonyl-6-[3-methyl-6-(trifluoromethyl)imidazo[4,5-b]pyridin-2-yl]-N-(4-oxo-1,4-oxathian-4-ylidene)pyridine-3-carboxamide]
≥ 80%: mortality at 24 ppm (Myzus persicae [1]) | percent effect (mortality or growth inhibition) at 200 ppm (Euschistus heros) | mortality at 200 ppm (Myzus persicae [2]) | percent effect (mortality or growth inhibition) at 200 ppm (Plutella xylostella)

CCS(=O)(=O)c1cc(C(=O)N=S2(=O)CCOCC2)cnc1-c1nc2cc(C(F)(F)F)ncc2n1C [Compound P2, 5-ethylsulfonyl-6-[3-methyl-6-(trifluoromethyl)imidazo[4,5-c]pyridin-2-yl]-N-(4-oxo-1,4-oxathian-4-ylidene)pyridine-3-carboxamide]
≥ 80%: mortality at 24 ppm (Myzus persicae [1]) | percent effect (mortality or growth inhibition) at 200 ppm (Euschistus heros) | mortality at 200 ppm (Myzus persicae [2])

CCS(=O)(=O)c1cc(C(=O)N=S(=O)(CC)CC)cnc1-c1cn2cnc(C(F)(F)F)cc2n1 [Compound P21, N-[diethyl(oxo)-λ^6-sulfanylidene]-5-ethylsulfonyl-6-[7-(trifluoromethyl)imidazo[1,2-c]pyrimidin-2-yl]pyridine-3-carboxamide]
≥ 80%: percent effect (mortality or growth inhibition) at 200 ppm (Euschistus heros) | percent control (mortality, anti-feedant effect or growth inhibition) at 200 ppm (Spodoptera littoralis) | percent effect (mortality or growth inhibition) at 200 ppm (Plutella xylostella)

CCS(=O)(=O)c1cc(C(=O)N=S(C)(C)=O)cnc1-c1nc2cc(C(F)(F)F)nnc2n1C [Compound P6, N-[dimethyl(oxo)-λ^6-sulfanylidene]-5-ethylsulfonyl-6-[7-methyl-3-(trifluoromethyl)imidazo[4,5-c]pyridazin-6-yl]pyridine-3-carboxamide]
≥ 80%: percent effect (mortality or growth inhibition) at 200 ppm (Diabrotica Balteata) | mortality at 24 ppm (Myzus persicae [1]) | percent effect (mortality or growth inhibition) at 200 ppm (Euschistus heros) | mortality at 200 ppm (Myzus persicae [2]) | mortality at 200 ppm (Bemisia tabaci) | percent effect (mortality or growth inhibition) at 200 ppm (Plutella xylostella)

CCS(=O)(=O)c1cc(C(=O)N=S(=O)(CC)CC)cnc1-c1nc2cc(C(F)(F)F)nnc2n1C [Compound P18, N-[diethyl(oxo)-λ^6-sulfanylidene]-5-ethylsulfonyl-6-[7-methyl-3-(trifluoromethyl)imidazo[4,5-c]pyridazin-6-yl]pyridine-3-carboxamide]
≥ 80%: percent effect (mortality or growth inhibition) at 200 ppm (Diabrotica Balteata) | mortality at 24 ppm (Myzus persicae [1]) | percent effect (mortality or growth inhibition) at 200 ppm (Euschistus heros) | mortality at 200 ppm (Myzus persicae [2]) | mortality at 200 ppm (Bemisia tabaci) | percent effect (mortality or growth inhibition) at 200 ppm (Plutella xylostella)

CCS(=O)(=O)c1cc(C(=O)N=S(=O)(CC)CC)cnc1-c1nc2cc(C(F)(F)F)cnc2n1C [Compound P19, N-[diethyl(oxo)-λ^6-sulfanylidene]-5-ethylsulfonyl-6-[3-methyl-6-(trifluoromethyl)imidazo[4,5-b]pyridin-2-yl]pyridine-3-carboxamide]
≥ 80%: mortality at 24 ppm (Myzus persicae [1]) | percent effect (mortality or growth inhibition) at 200 ppm (Euschistus heros) | mortality at 200 ppm (Myzus persicae [2]) | mortality at 200 ppm (Bemisia tabaci) | percent effect (mortality or growth inhibition) at 200 ppm (Plutella xylostella) | mortality at 200 ppm [3]

CCS(=O)(=O)c1cc(C(=O)N=S(C)(C)=O)ccc1-c1cn2cnc(C(F)(F)F)cc2n1 [Compound P7, N-[dimethyl(oxo)-λ^6-sulfanylidene]-3-ethylsulfonyl-4-[7-(trifluoromethyl)imidazo[1,2-c]pyrimidin-2-yl]benzamide]
≥ 80%: percent effect (mortality or growth inhibition) at 200 ppm (Diabrotica Balteata) | mortality at 24 ppm (Myzus persicae [1]) | mortality at 200 ppm (Myzus persicae [2]) | percent effect (mortality or growth inhibition) at 200 ppm (Plutella xylostella) | mortality at 200 ppm [3]
